In patent publication US20190135857A1, “TR[…] HUMAN IMMUNODEFICIENCY VIRUS REPLICATION” (priority 2016, published 2019):

These compounds were tested on recombinant NL4-3 virus (nef section replaced with Renilla luciferase gene, Gag P373S) (assay: HIV Cell Culture Assay). Settings: NL43.
Type: cell-based
Protocol: MT-2 cells and 293T cells were obtained from the NIH AIDS Research and Reference Reagent Program. MT-2 cells were propagated in RPMI 1640 media supplemented with 10% heat inactivated fetal bovine serum, […]. The 293T cells were propagated in DMEM media supplemented with 10% heat inactivated fetal bovine serum (FBS), 100 units/ml penicillin G and 100 μg/ml streptomycin. The proviral DNA clone of NL4-3 was obtained from the NIH AIDS Research and Reference Reagent Program. A recombinant NL4-3 virus, in which a section of the nef gene from NL4-3 was replaced with the Renilla luciferase gene, was used as a reference virus. In addition, residue Gag P373 was converted to P373S. Briefly, the recombinant virus was prepared by transfection of the altered proviral clone of NL4-3. Transfections were performed in 293T cells using LipofectAMINE PLUS from Invitrogen (Carlsbad, Calif.), according to manufacturer's instruction. The virus was titered in MT-2 cells using luciferase enzyme activity as a marker. Luciferase was quantitated using the Dual Luciferase kit from Promega (Madison, Wis.), with modifications to the manufacturer's protocol. The diluted Passive Lysis solution was pre-mixed with the re-suspended Luciferase Assay Reagent and the re-suspended Stop & Glo Substrate (2:1:1 ratio). Fifty (50) μL of the mixture was added to each aspirated well on assay plates and luciferase activity was measured immediately on a Wallac TriLux (Perkin-Elmer). Antiviral activities of inhibitors toward the recombinant virus were quantified by measuring luciferase activity in cells infected for 4-5 days with NLRluc recombinants in the presence serial dilutions of the inhibitor. Note that some of the data is provided in abbreviated exponential form such that, for example, 2.53E−3, is equivalent to 2.53×10^−3.

Structure (SMILES)	EC50
CC(C)[C@@H]1CC[C@]2(C(=O)NCCN(C)C)CC[C@]3(C)[C@H](CC[C@@H]4[C@@]5(C)CC[C@@H](c6ccc(C(=O)O)cc6)C(C)(C)[C@@H]5CC[C@]43C)[C@@H]12 [Example B2, 4-((1S,3aS,5aR,5bR,7aS,9R,11aS,11bR,13aR,13bR)-3a-((2-(dimethylamino)ethyl)carbamoyl)-1-isopropyl-5a,5b,8,8,11a-pentamethylicosahydro-1H-cyclopenta[a]chrysen-9-yl)benzoic acid]	2.53 nM
CC(C)[C@@H]1CC[C@]2(C(=O)O)CC[C@]3(C)[C@H](CC[C@@H]4[C@@]5(C)CC[C@@H](c6ccc(C(=O)O)cc6)C(C)(C)[C@@H]5CC[C@]43C)[C@@H]12 [Example B1, (1S,3aS,5aR,5bR,7aS,9R,11aS,11bR,13aR,13bR)-9-(4-carboxyphenyl)-1-isopropyl-5a,5b,8,8,8,11a-pentamethylicosahydro-1H-cyclopenta[a]chrysene-3a-carboxylic acid]	10 nM
CC(C)[C@@H]1CC[C@]2(NCCN3CCC(S(C)(=O)=O)CC3)CC[C@]3(C)[C@H](CC[C@@H]4[C@@]5(C)CC[C@@H](c6ccc(C(=O)O)cc6)C(C)(C)[C@@H]5CC[C@]43C)[C@@H]12 [Example B13, 4-((1S,3aS,5aR,5bR,7aS,9R,11aS,11bR,13aR,13bR)-1-isopropyl-5a,5b,8,8,11a-pentamethyl-3a-((2-(4-(methylsulfonyl)piperidin-1-yl)ethyl)amino)icosahydro-1H-cyclopenta[a]chrysen-9-yl)benzoic acid]	1.58 nM
CC(C)[C@@H]1CC[C@]2(NC(=O)NCCN(C)C)CC[C@]3(C)[C@H](CC[C@@H]4[C@@]5(C)CC[C@@H](c6ccc(C(=O)O)cc6)C(C)(C)[C@@H]5CC[C@]43C)[C@@H]12 (single isomer, unassigned) [Example B5]	5.16 nM
CC(C)[C@@H]1CC[C@]2(NC(=O)OCCN(C)C)CC[C@]3(C)[C@H](CC[C@@H]4[C@@]5(C)CC[C@@H](c6ccc(C(=O)O)cc6)C(C)(C)[C@@H]5CC[C@]43C)[C@@H]12 (single isomer, unassigned) [Example B7]	6.45 nM
CC(C)[C@@H]1CC[C@]2(NC(=O)NCCCN(C)C)CC[C@]3(C)[C@H](CC[C@@H]4[C@@]5(C)CC[C@@H](c6ccc(C(=O)O)cc6)C(C)(C)[C@@H]5CC[C@]43C)[C@@H]12 (single isomer, unassigned) [Example B6]	5.13 nM
CC(C)[C@@H]1CC[C@]2(NC(=O)CN(C)C)CC[C@]3(C)[C@H](CC[C@@H]4[C@@]5(C)CC[C@@H](c6ccc(C(=O)O)cc6)C(C)(C)[C@@H]5CC[C@]43C)[C@@H]12 (single isomer, unassigned) [Example B9]	10 nM
CC(C)[C@@H]1CC[C@]2(C(=O)NCCCN(C)C)CC[C@]3(C)[C@H](CC[C@@H]4[C@@]5(C)CC[C@@H](c6ccc(C(=O)O)cc6)C(C)(C)[C@@H]5CC[C@]43C)[C@@H]12 [Example B3, 4-((1S,3aS,5aR,5bR,7aS,9R,11aS,11bR,13aR,13bR)-3a-((3-(dimethylamino)propyl)carbamoyl)-1-isopropyl-5a,5b,8,8,11a-pentamethylicosahydro-1H-cyclopenta[a]chrysen-9-yl)benzoic acid]	2.33 nM
CC(C)[C@@H]1CC[C@]2(NC(=O)CCN(C)C)CC[C@]3(C)[C@H](CC[C@@H]4[C@@]5(C)CC[C@@H](c6ccc(C(=O)O)cc6)C(C)(C)[C@@H]5CC[C@]43C)[C@@H]12 (single isomer, unassigned) [Example B10]	3.81 nM
CC(C)[C@@H]1CC[C@]2(N)CC[C@]3(C)[C@H](CC[C@@H]4[C@@]5(C)CC[C@@H](c6ccc(C(=O)O)cc6)C(C)(C)[C@@H]5CC[C@]43C)[C@@H]12 [Example B4, 4-((1S,3aS,5aR,5bR,7aS,9R,11aS,11bR,13aR,13bR)-3a-amino-1-isopropyl-5a,5b,8,8,11a-pentamethylicosahydro-1H-cyclopenta[a]chrysen-9-yl)benzoic acid]	4.53 nM
CC(C)[C@@H]1CC[C@]2(NCCN3C[C@@H]4C[C@H]3CS4(=O)=O)CC[C@]3(C)[C@H](CC[C@@H]4[C@@]5(C)CC[C@@H](c6ccc(C(=O)O)cc6)C(C)(C)[C@@H]5CC[C@]43C)[C@@H]12 (single isomer, unassigned) [Example B12]	0.605 nM
CC(C)[C@@H]1CC[C@]2(NC(=O)CCCN(C)C)CC[C@]3(C)[C@H](CC[C@@H]4[C@@]5(C)CC[C@@H](c6ccc(C(=O)O)cc6)C(C)(C)[C@@H]5CC[C@]43C)[C@@H]12 (single isomer, unassigned) [Example B11]	5.94 nM
CC(C)[C@@H]1CC[C@]2(NC(=O)OCCCN(C)C)CC[C@]3(C)[C@H](CC[C@@H]4[C@@]5(C)CC[C@@H](c6ccc(C(=O)O)cc6)C(C)(C)[C@@H]5CC[C@]43C)[C@@H]12 (single isomer, unassigned) [Example B8]	4.49 nM
